Several values for one entry are separate records, joined by “and”; a condition that tells them apart may be missing. Identical values can stand only once.
How the values were obtained:
[1] = test system: CK1δ; details: compound IV (SR 2890), Figure 1; read-out: CK1δ IC50; cited from earlier work
[2] = target: T1, truncated CK1δ (Homo sapiens, UniProt P48730); assay: CK1δ luminescent kinase assay (Kinase Glo kit); format: biochemical; details: for IC50: truncated recombinant human CK1δ (aa 1-294), casein substrate, 2 μM ATP, mean ± SE of three independent experiments in duplicate
T1 construct: truncated CK1δ, recombinant human, GST-tagged, aa 1-294, Merck Millipore; GST; purchased Merck Millipore, Merck KGaA, Darmstadt, Germany
T1 sequence (P48730 1-294): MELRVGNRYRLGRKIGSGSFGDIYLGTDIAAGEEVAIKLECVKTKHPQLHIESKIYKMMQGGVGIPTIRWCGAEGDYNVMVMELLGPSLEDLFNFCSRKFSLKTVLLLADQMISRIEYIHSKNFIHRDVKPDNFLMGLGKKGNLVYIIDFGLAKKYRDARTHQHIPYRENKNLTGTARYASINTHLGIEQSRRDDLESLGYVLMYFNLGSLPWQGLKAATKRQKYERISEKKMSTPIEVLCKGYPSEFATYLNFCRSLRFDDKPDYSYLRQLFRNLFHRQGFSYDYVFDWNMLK
Method: The newly synthesized derivatives 1–32 were tested on truncated CK1δ using the luminescent kinase assay Kinase Glo® KIT (Promega Italy S.r.l., Milan, Italy), and the results are reported in Table 1 and Table 2. Derivatives were tested at a fixed dose of 40 μM; then, those showing a residual kinase activity percentage lower than 50% were tested at 10 μM.
The inhibitory activity of synthesized compounds on CK1δ has been carried out following a procedure for a luminescence-based assay (KinaseGlo® kit, Promega Italy Srl, Milan, Italy) already reported in the literature. Luminescent assays were performed in white 96-well plates in a 40 μL final volume. The buffer used is a milliq water solution of 50 mM HEPES (pH 7.5), 1 mM EDTA, 1 mM EGTA, and 15 mM MgCl2. In a typical assay, 10 μL of inhibitor solution (desired concentrations were obtained by diluting in buffer a starting 10 mM solution in DMSO) and 10 μL of enzyme solution (truncated CK1δ, recombinant human, GST-tagged, aa 1-294, Merck Millipore, Merck KGaA, Darmstadt, Germany) were added to the well, followed by 20 μL of assay buffer containing casein substrate (casein solution from bovine milk, 5% in water, Sigma-Aldrich, Merck KGaA, Darmstadt, Germany) and ATP, at a final concentration of 0.05% and 2 μM, respectively. The final enzyme concentration was 6.5 nM. […] After 60 min of incubation at 30 °C, the enzymatic reactions were stopped with the addition of 40 μL of KinaseGlo reagent (Promega Italy Srl, Milan, Italy). The luminescence signal (relative light unit, RLU) was recorded after 10 min at 25 °C using a Tecan Infinite M100. […] IC50 values were evaluated using ten different inhibitor concentrations ranging from 100 to 0.026 μM. Data were analyzed using Excel and GraphPad Prism software (version 8.0).

melting point	IC50 [2]	fold less potent than the regioisomer 18 (CK1δ) ([2]; 19 (4-NO2) versus 18 (5-NO2)) [fold]	SMILES	IC50 [1] [µM]
			Fc1cccc(-n2cnc3c(NCc4nc5ccc(Cl)cc5[nH]4)nc(N4CCNCC4)nc32)c1 [IV]	0.005
257 °C (dec.)	1.64 ± 0.31 µM		Cc1ccc2[nH]c(NC(=O)Cc3cc[nH]n3)nc2c1 [Compound 14, N-(5(6)-Methyl-1H-benzimidazol-2-yl)-2-(1H-pyrazol-3(5)-yl)acetamide]	
267 to 268 °C	0.0986 ± 0.0394 µM		N#Cc1ccc2[nH]c(NC(=O)Cc3cc[nH]n3)nc2c1 [Compound 23, N-(5(6)-Cyano-1H-benzimidazol-2-yl)(1H-pyrazol-(3)5-yl)-2-acetamide]	
> 300 °C	> 40 µM		O=C(Nc1nc2cc([N+](=O)[O-])ccc2[nH]1)c1cc[nH]n1 [Compound 12, N-(5(6)-Nitro-1H-benzimidazol-2-yl)-1H-pyrazole-3(5)-carboxamide]	
	1 ± 0.18 µM		CC(C)(C)c1ccc2[nH]c(NC(=O)Cc3cc[nH]n3)nc2c1 [Compound 20, N-(5(6)-terButyl-1H-benzimidazol-2-yl)(1H-pyrazol-3(5)-yl)-2-acetamide]	
270 to 274 °C	5.99 ± 0.87 µM		O=C(Cc1cc[nH]n1)Nc1nc2cc(OC(F)(F)F)ccc2[nH]1 [Compound 21, 2-(1H-Pyrazol-3(5)-yl)-N-(5(6)-trifluoromethoxy-1H-benzimidazol-2-yl)acetamide]	
168 to 170 °C	> 40 µM		COc1ccccc1C(=O)Cn1ccc(C(=O)Nc2nc3ccccc3[nH]2)n1 [Compound 4, N-(1H-Benzimidazol-2yl)-1-(2-(2-methoxyphenyl)-2-oxoethyl)-1H-pyrazole-3-carboxamide]	
280 °C (dec.)	> 40 µM		O=C(Cc1cc[nH]n1)Nc1nc2c(NC(=O)c3ccccc3)cccc2[nH]1 [Compound 29, N-(2-(2-(1H-Pyrazol-3-yl)acetamido)-1H-benzimidazol-4(7)-yl)benzamide]	
286 to 288 °C	0.485 ± 0.31 µM		O=C(Cc1cc[nH]n1)Nc1nc2cc(Cl)ccc2[nH]1 [Compound 15, N-(5(6)-Cloro-1H-benzimidazol-2-yl)-2-(1H-pyrazol-3(5)-yl)acetamide]	
295 to 297 °C	4.21 ± 1.92 µM		O=C(Cc1cc[nH]n1)Nc1nc2ccccc2[nH]1 [Compound 13, N-(1H-benzimidazol-2-yl)-2-(1H-pyrazol-3(5)-yl)acetamide]	
> 300 °C	< 15 µM and 1.54 µM		O=C(Cc1cc[nH]n1)Nc1nc2cc(-c3nnn[nH]3)ccc2[nH]1 [Compound 31, N-(5(6)-(1H-tetrazol-5-yl)-1H-benzimidazol-2-yl)(1H-pyrazol-3(5)-yl)acetamide]	
	> 40 µM		CC(=O)Nc1ccc2[nH]c(NC(=O)Cc3cc[nH]n3)nc2c1 [Compound 27, N-(5(6)-Acetamido-1H-benzimidazol-2-yl)(1H-pyrazol-3(5)-yl)acetamide]	
> 300 °C	> 40 µM		O=C(Nc1nc2ccccc2[nH]1)c1cc[nH]n1 [Compound 7, N-(1H-Benzimidazol-2-yl)-1H-pyrazole-3(5)-carboxamide]	
280 to 282 °C	1.22 ± 0.23 µM	10	O=C(Cc1cc[nH]n1)Nc1nc2c([N+](=O)[O-])cccc2[nH]1 [Compound 19, N-(4(7)-Nitro-1H-benzimidazol-2-yl)(1H-pyrazol-3(5)-yl)-2-acetamide]	
> 300 °C	> 40 µM		O=C(Nc1nc2cc(C(F)(F)F)ccc2[nH]1)c1cc[nH]n1 [Compound 10, 1H-Pyrazole-N-(5(6)-trifluoromethyl-1H-benzimidazol-2-yl)-3(5)-carboxamide]	
275 to 277 °C	1.74 ± 0.32 µM		O=C(Cc1cc[nH]n1)Nc1nc2cc(C(F)(F)F)ccc2[nH]1 [Compound 16, 2-(1H-Pyrazol-3(5)-yl)-N-(5(6)-trifluoromethyl-1H-benzimidazol-2-yl)acetamide]	
290 to 292 °C	2.53 ± 0.38 µM		NC(=O)c1ccc2[nH]c(NC(=O)Cc3cc[nH]n3)nc2c1 [Compound 24]	

melting point	IC50 [2]	fold less potent than the regioisomer 18 (CK1δ) ([2]; 19 (4-NO2) versus 18 (5-NO2)) [fold]	SMILES	IC50 [1] [µM]
239 to 240 °C	6.27 ± 0.95 µM		COc1ccc2[nH]c(NC(=O)Cc3cc[nH]n3)nc2c1 [Compound 17, N-(5(6)-Methoxy-1H-benzimidazol-2-yl)-2-(1H-pyrazol-3(5)-yl)acetamide]	
238 to 240 °C	< 15 µM and 10.7 µM		CNS(=O)(=O)c1ccc2[nH]c(NC(=O)Cc3cc[nH]n3)nc2c1 [Compound 26]	
269 to 271 °C	< 15 µM and 2.59 µM		O=C(Cc1cc[nH]n1)Nc1nc2cc(-n3cncn3)ccc2[nH]1 [Compound 30, N-(5(6)-(1H-1,2,4-triazol-1-yl)-1H-benzimidazol-2-yl)(1H-pyrazol-3(5)-yl)acetamide]	
220 to 221 °C	> 40 µM		O=C(Cn1ccc(C(=O)Nc2nc3ccccc3[nH]2)n1)c1ccccc1 [Compound 1, N-(1H-Benzimidazol-2yl)-1-(2-oxo-2-phenylethyl)-1H-pyrazole-3-carboxamide]	
200 to 203 °C	< 15 µM and 1.8 µM		O=C(Cn1ccc(C(=O)Nc2nc3cc(Cl)ccc3[nH]2)n1)c1ccccc1 [Compound 3, N-(5(6)-Chloro-1H-benzimidazol-2yl)-1-(2-oxo-2-phenylethyl)-1H-pyrazole-3-carboxamide]	
> 300 °C	> 40 µM		COc1ccc2[nH]c(NC(=O)c3cc[nH]n3)nc2c1 [Compound 11, N-(5(6)-Methoxy-1H-benzimidazol-2-yl)-1H-pyrazole-3(5)-carboxamide]	
> 300 °C	> 40 µM		O=C(Nc1nc2cc(Cl)ccc2[nH]1)c1cc[nH]n1 [Compound 9, N-(5(6)-Chloro-1H-benzimidazol-2-yl)-1H-pyrazole-3(5)-carboxamide]	
272 to 274 °C	0.12 ± 0.083 µM		O=C(Cc1cc[nH]n1)Nc1nc2cc([N+](=O)[O-])ccc2[nH]1 [Compound 18, N-(5(6)-Nitro-1H-benzimidazol-2-yl)(1H-pyrazol-3(5)-yl)-2-acetamide]	
292 to 293 °C	> 40 µM		O=C(Cc1cc[nH]n1)Nc1nc2cc(NC(=O)c3ccccc3)ccc2[nH]1 [Compound 28, N-(2-(2-(1H-Pyrazol-3-yl)acetamido)-1H-benzimidazol-3(5)-yl)benzamide]	
> 300 °C	> 40 µM		Cc1ccc2[nH]c(NC(=O)c3cc[nH]n3)nc2c1 [Compound 8, N-(5(6)-Methyl-1H-benzimidazol-2-yl)-1H-pyrazole-3(5)-carboxamide]	
> 300 °C	0.98 ± 0.35 µM		O=C(Cc1cc[nH]n1)Nc1nc2cc(Cl)c(Cl)cc2[nH]1 [Compound 22, N-(5,6-Dichloro-1H-benzimidazol-2-yl)-2-(1H-pyrazol-3(5)-yl)acetamide]	
201 to 203 °C	> 40 µM		COc1ccccc1C(=O)Cn1ccc(C(=O)Nc2nc3cc(C)ccc3[nH]2)n1 [Compound 5, N-(5(6)-Methyl-1H-benzimidazol-2yl)-1-(2-(2-methoxyphenyl)-2-oxoethyl)-1H-pyrazole-3-carboxamide]	
	20.1 ± 7.3 µM		Cn1c(NC(=O)Cc2cc[nH]n2)nc2ccc(Cl)cc21 [Compound 32, N-(6-Chloro-1-methyl-benzimidazol-2-yl)(1H-pyrazol-3(5)-yl)acetamide]	
219 to 221 °C	< 15 µM and 13.2 µM		COc1ccccc1C(=O)Cn1ccc(C(=O)Nc2nc3cc(Cl)ccc3[nH]2)n1 [Compound 6, N-(5(6)-Chloro-1H-benzimidazol-2yl)-1-(2-(2-methoxyphenyl)-2-oxoethyl)-1H-pyrazole-3-carboxamide]	
285 to 287 °C	> 40 µM		NS(=O)(=O)c1ccc2[nH]c(NC(=O)Cc3cc[nH]n3)nc2c1 [Compound 25, 2-(1H-Pyrazol-3(5)-yl)-N-(5(6)-sulfamoyl-1H-benzimidazol-2-yl)acetamide]	
199 to 200 °C	< 15 µM and 14.6 µM		Cc1ccc2[nH]c(NC(=O)c3ccn(CC(=O)c4ccccc4)n3)nc2c1 [Compound 2, N-(5(6)-Methyl-1H-benzimidazol-2yl)-1-(2-oxo-2-phenylethyl)-1H-pyrazole-3-carboxamide]	
